{"source": "patent US7074816B2", "about": "“1 2 4-triazole compound” (Fuji Yakuhin Co., Ltd., priority 2002, dated 2006)", "data": [{"molecular_target": "T1, xanthine oxidase (Rattus norvegicus, UniProt P22985)", "T1 construct": "administered orally to seven-week-old male Wistar rats (4 rats per group); from tissue; host or cells: whole animal (male Wistar rats); the enzyme is endogenous and was not isolated", "T1 sequence (P22985 whole entry)": "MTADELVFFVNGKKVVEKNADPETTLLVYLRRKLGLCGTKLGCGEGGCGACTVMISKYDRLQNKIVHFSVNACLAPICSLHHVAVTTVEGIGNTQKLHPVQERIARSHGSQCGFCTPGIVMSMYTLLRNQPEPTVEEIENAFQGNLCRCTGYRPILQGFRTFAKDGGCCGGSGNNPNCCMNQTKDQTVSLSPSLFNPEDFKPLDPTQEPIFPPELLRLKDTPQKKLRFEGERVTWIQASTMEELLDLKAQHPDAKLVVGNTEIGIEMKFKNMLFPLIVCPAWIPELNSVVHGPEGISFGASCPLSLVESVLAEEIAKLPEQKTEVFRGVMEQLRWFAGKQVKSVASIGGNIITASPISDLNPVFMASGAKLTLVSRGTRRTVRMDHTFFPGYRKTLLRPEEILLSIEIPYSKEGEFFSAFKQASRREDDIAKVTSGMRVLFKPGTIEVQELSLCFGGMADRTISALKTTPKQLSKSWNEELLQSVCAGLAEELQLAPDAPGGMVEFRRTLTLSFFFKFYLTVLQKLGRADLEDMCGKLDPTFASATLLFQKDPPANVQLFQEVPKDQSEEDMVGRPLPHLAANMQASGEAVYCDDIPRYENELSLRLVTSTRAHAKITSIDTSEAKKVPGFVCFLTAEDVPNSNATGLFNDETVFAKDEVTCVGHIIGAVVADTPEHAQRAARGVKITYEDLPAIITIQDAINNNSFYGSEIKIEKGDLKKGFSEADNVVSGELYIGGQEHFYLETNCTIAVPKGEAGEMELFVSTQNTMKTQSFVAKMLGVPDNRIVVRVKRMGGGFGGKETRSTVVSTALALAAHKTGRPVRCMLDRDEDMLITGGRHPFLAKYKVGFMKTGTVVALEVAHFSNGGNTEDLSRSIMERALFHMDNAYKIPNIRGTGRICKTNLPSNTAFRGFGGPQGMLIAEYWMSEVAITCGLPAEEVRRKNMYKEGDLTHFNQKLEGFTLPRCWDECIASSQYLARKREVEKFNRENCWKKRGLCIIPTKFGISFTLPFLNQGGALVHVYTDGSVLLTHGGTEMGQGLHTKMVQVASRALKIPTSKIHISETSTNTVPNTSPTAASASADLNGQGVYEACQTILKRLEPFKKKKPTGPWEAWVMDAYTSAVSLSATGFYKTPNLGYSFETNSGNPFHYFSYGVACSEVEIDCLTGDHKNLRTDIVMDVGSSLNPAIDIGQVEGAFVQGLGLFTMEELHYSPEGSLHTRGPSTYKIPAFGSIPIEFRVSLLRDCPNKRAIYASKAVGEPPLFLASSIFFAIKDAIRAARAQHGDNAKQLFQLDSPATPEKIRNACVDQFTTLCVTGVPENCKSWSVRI", "test": "Effect of lowering serum uric acid level in vivo (oral, Wistar rats)", "conditions": "male Wistar rats, 0.3 mg/5 ml/kg in 0.5% methylcellulose, blood collected 6 hours after administration", "description": "(§1) Method for Evaluating the Effect of Lowering Serum Uric Acid Level In Vivo\n(§2) Each of the test compounds was suspended in a 0.5% methylcellulose (MC) aqueous solution and administered orally to seven-week-old male Wistar rats (4 rats per group) compulsorily through a feeding tube at a dose of 0.3 mg/5 ml/kg (1 mg/5 ml/kg for Example 17 and Compound 44 of J. Medicinal Chemistry, (1975) as a control). The blood was collected from the orbital sinus at 6 hours after administration of the test compound. Each blood sample was allowed to clot for one hour and then centrifuged at 2000×g for 10 minutes to obtain serum. The uric acid level in the serum was determined using a kit (Wako Pure Chemicals Industries, Ltd.; phosphotungstic acid method) and a reduction rate of serum uric acid level was calculated by the following formula:\n(§3) Reduction rate of serum uric acid level=(1-Average serum uric acid level in the group receiving a test compound/Average serum uric acid level in the group receiving MC)×100", "units": {"Reduction rate of serum uric acid level": "%"}, "values": [{"compound": "C#CCOc1ccc(-c2nc(-c3ccnc(C)c3)n[nH]2)cc1C#N", "note": "[Example 28, 3-(2-methyl-4-pyridyl)-5-(3-cyano-4-propargyloxyphenyl)-1,2,4-triazole]", "Reduction rate of serum uric acid level": 35.3}, {"compound": "N#Cc1cc(-c2n[nH]c(-c3cc[n+]([O-])cc3)n2)ccn1", "note": "[Example 35, 3-(2-cyano-4-pyridyl)-5-(1-oxy-4-pyridyl)-1,2,4-triazole]", "Reduction rate of serum uric acid level": 46.8}, {"compound": "Cc1cc(-c2nc(-c3ccc(OCOCc4ccccc4)c([N+](=O)[O-])c3)n[nH]2)ccn1", "note": "[Example 10, 3-(4-benzyloxymethyloxy-3-nitrophenyl)-5-(2-methyl-4-pyridyl)-1,2,4-triazole]", "Reduction rate of serum uric acid level": 41.6}, {"compound": "CCCCOc1ccc(-c2n[nH]c(-c3ccncc3)n2)cc1[N+](=O)[O-]", "note": "[Example 15, 3-(4-butoxy-3-nitrophenyl)-5-(4-pyridyl)-1,2,4-triazole]", "Reduction rate of serum uric acid level": 41.2}, {"compound": "Cc1cc(-c2nc(-c3ccnc(Cl)c3)n[nH]2)ccn1", "note": "[Example 27, 3-(2-chloro-4-pyridyl)-5-(2-methyl-4-pyridyl)-1,2,4-triazole]", "Reduction rate of serum uric acid level": 32.9}, {"compound": "Cc1cc(-c2n[nH]c(-c3ccc(OCC(C)C)c(C#N)c3)n2)ccn1", "note": "[Example 20, 3-(2-methyl-4-pyridyl)-5-(3-cyano-4-isobutoxyphenyl)-1,2,4-triazole]", "Reduction rate of serum uric acid level": 67.5}, {"compound": "Cc1cc(-c2n[nH]c(-c3ccc(OCCC(C)C)c(C#N)c3)n2)ccn1", "note": "[Example 25, 3-(2-methyl-4-pyridyl)-5-(3-cyano-4-isopentyloxyphenyl)-1,2,4-triazole]", "Reduction rate of serum uric acid level": 47.2}, {"compound": "Cc1cc(-c2nc(-c3ccc(N4CCN(C)CC4)c([N+](=O)[O-])c3)n[nH]2)ccn1", "note": "[Example 4, 3-[4-(4-methyl-1-piperazino)-3-nitrophenyl]-5-(2-methyl-4-pyridyl)-1,2,4-triazole]", "Reduction rate of serum uric acid level": 43.9}, {"compound": "Cc1cc(-c2nc(-c3ccc(Sc4ccccc4)c([N+](=O)[O-])c3)n[nH]2)ccn1", "note": "[Example 6, 5-(2-methyl-4-pyridyl)-3-(3-nitro-4-phenylthiophenyl)-1,2,4-triazole]", "Reduction rate of serum uric acid level": 40.6}, {"compound": "COc1ccc(COc2ccc(-c3nc(-c4ccnc(C)c4)n[nH]3)cc2C#N)cc1", "note": "[Example 24, 3-(2-methyl-4-pyridyl)-5-[3-cyano-4-(4-methoxybenzyloxy)phenyl]-1,2,4-triazole]", "Reduction rate of serum uric acid level": 38.3}, {"compound": "Cc1cc(-c2n[nH]c(-c3ccc(OCC4CC4)c(C#N)c3)n2)ccn1", "note": "[Example 22, 3-(2-methyl-4-pyridyl)-5-(3-cyano-4-cyclopropylmethoxyphenyl)-1,2,4-triazole]", "Reduction rate of serum uric acid level": 32.6}, {"compound": "COCCOCCOCCOc1ccc(-c2nc(-c3ccnc(C)c3)n[nH]2)cc1C#N", "note": "[Example 33, 3-(2-methyl-4-pyridyl)-5-[3-cyano-4-{(<2-methoxyethoxy>ethoxy)ethoxy}phenyl]-1,2,4-triazole]", "Reduction rate of serum uric acid level": 44.7}, {"compound": "Cc1cc(-c2nc(-c3ccc(OCSc4ccccc4)c([N+](=O)[O-])c3)n[nH]2)ccn1", "note": "[Example 8, 5-(2-methyl-4-pyridyl)-3-(3-nitro-4-phenylthiomethyloxyphenyl)-1,2,4-triazole]", "Reduction rate of serum uric acid level": 32.5}, {"compound": "CC(C)COc1ccc(-c2n[nH]c(-c3ccncc3)n2)cc1C#N", "note": "[Example 2, 3-(3-cyano-4-isobutoxyphenyl)-5-(4-pyridyl)-1,2,4-triazole]", "Reduction rate of serum uric acid level": 62.3}, {"compound": "Cc1cc(-c2nc(-c3ccc(SCC(C)C)c([N+](=O)[O-])c3)n[nH]2)ccn1", "note": "[Example 7, 3-(4-isobutylthio-3-nitrophenyl)-5-(2-methyl-4-pyridyl)-1,2,4-triazole]", "Reduction rate of serum uric acid level": 42.7}, {"compound": "Cc1cc(-c2n[nH]c(-c3ccc(OCCOCCOCCCl)c(C#N)c3)n2)ccn1", "note": "[Example 29, 3-(2-methyl-4-pyridyl)-5-[3-cyano-4-{(<2-chloroethoxy>ethoxy)ethoxy}phenyl]-1,2,4-triazole]", "Reduction rate of serum uric acid level": 40.7}, {"compound": "COc1ccc(-c2nc(-c3ccnc(C)c3)n[nH]2)cc1[N+](=O)[O-]", "note": "[Example 21, 3-(2-methyl-4-pyridyl)-5-(3-nitro-4-methoxyphenyl)-1,2,4-triazole]", "Reduction rate of serum uric acid level": 52.9}, {"compound": "Cc1cc(-c2nc(-c3ccc(OCC(C)C)c([N+](=O)[O-])c3)n[nH]2)ccn1", "note": "[Example 1, 3-(4-isobutoxy-3-nitrophenyl)-5-(2-methyl-4-pyridyl)-1,2,4-triazole]", "Reduction rate of serum uric acid level": 66.5}, {"compound": "CC(C)Oc1ccc(-c2nc(-c3ccncc3)n[nH]2)cc1[N+](=O)[O-]", "note": "[Example 16, 5-(4-isopropoxy-3-nitrophenyl)-3-(4-pyridyl)-1,2,4-triazole]", "Reduction rate of serum uric acid level": 36.1}, {"compound": "COc1ccc(-c2nc(-c3ccnc(C)c3)n[nH]2)cc1C#N", "note": "[Example 26, 3-(2-methyl-4-pyridyl)-5-(3-cyano-4-methoxyphenyl)-1,2,4-triazole]", "Reduction rate of serum uric acid level": 37.9}, {"compound": "N#Cc1cc(-c2n[nH]c(-c3ccnc(Cl)c3)n2)ccn1", "note": "[Example 37, 3-(2-cyano-4-pyridyl)-5-(2-chloro-4-pyridyl)-1,2,4-triazole]", "Reduction rate of serum uric acid level": 33.6}, {"compound": "COCCOc1ccc(-c2nc(-c3ccnc(C)c3)n[nH]2)cc1C#N", "note": "[Example 31, 3-(2-methyl-4-pyridyl)-5-(3-cyano-4-methoxyethoxyphenyl)-1,2,4-triazole]", "Reduction rate of serum uric acid level": 36.5}, {"compound": "Cc1cc(-c2nc(-c3ccnc(C#N)c3)n[nH]2)ccn1", "note": "[Example 23, 3-(2-cyano-4-pyridyl)-5-(2-methyl-4-pyridyl)-1,2,4-triazole]", "Reduction rate of serum uric acid level": 41.1}, {"compound": "N#Cc1cc(-c2nc(-c3ccncc3)n[nH]2)ccn1", "note": "[Example 12, 5-(2-cyano-4-pyridyl)-3-(4-pyridyl)-1,2,4-triazole]", "Reduction rate of serum uric acid level": 51.1}, {"compound": "COCCOCOc1ccc(-c2n[nH]c(-c3ccnc(C)c3)n2)cc1C#N", "note": "[Example 3, 3-[3-cyano-4-{(2-methoxy)ethoxymethyl}oxyphenyl]-5-(2-methyl-4-pyridyl)-1,2,4-triazole]", "Reduction rate of serum uric acid level": 40.0}, {"compound": "CC(C)COc1ccc(-c2n[nH]c(-c3ccncc3)n2)cc1[N+](=O)[O-]", "note": "[Example 13, 3-(4-isobutoxy-3-nitrophenyl)-5-(4-pyridyl)-1,2,4-triazole]", "Reduction rate of serum uric acid level": 46.8}, {"compound": "CSCOc1ccc(-c2n[nH]c(-c3ccnc(C)c3)n2)cc1[N+](=O)[O-]", "note": "[Example 9, 5-(2-methyl-4-pyridyl)-3-(4-methylthiomethyloxy-3-nitrophenyl)-1,2,4-triazole]", "Reduction rate of serum uric acid level": 35.7}, {"compound": "Cc1cc(-c2nc(-c3ccc(NCC(C)C)c([N+](=O)[O-])c3)n[nH]2)ccn1", "note": "[Example 5, 3-(4-isobutylamino-3-nitrophenyl)-5-(2-methyl-4-pyridyl)-1,2,4-triazole]", "Reduction rate of serum uric acid level": 39.9}, {"compound": "Cc1cc(-c2nc(-c3ccc(OCC(C)C)c([N+](=O)[O-])c3)nn2COC(=O)C(C)(C)C)ccn1", "note": "[Example 14, 3-(4-isobutoxy-3-nitrophenyl)-5-(2-methyl-4-pyridyl)-N-pivaloyloxymethyl-1,2,4-triazole]", "Reduction rate of serum uric acid level": 43.0}, {"compound": "Cc1cc(-c2nc(-c3ccc(OCC4CCCCO4)c([N+](=O)[O-])c3)n[nH]2)ccn1", "note": "(centres unmarked) [Example 11, 5-(2-methyl-4-pyridyl)-3-[3-nitro-4-(2-tetrahydropyranylmethyl)oxyphenyl]-1,2,4-triazole]", "Reduction rate of serum uric acid level": 41.6}, {"compound": "COCCOCCOc1ccc(-c2nc(-c3ccnc(C)c3)n[nH]2)cc1C#N", "note": "[Example 32, 3-(2-methyl-4-pyridyl)-5-[3-cyano-4-{(2-methoxyethoxy)ethoxy}phenyl]-1,2,4-triazole]", "Reduction rate of serum uric acid level": 52.0}]}, {"molecular_target": "T1, xanthine oxidase", "test": "Effect of lowering serum uric acid level in vivo (oral, Wistar rats)", "conditions": "male Wistar rats, 1 mg/5 ml/kg in 0.5% methylcellulose, blood collected 6 hours after administration", "description": "as §1, §2, §3", "units": {"Reduction rate of serum uric acid level": "%"}, "values": [{"compound": "CC(C)COc1ccc(-c2n[nH]c(-c3ccnc(Cl)c3)n2)cc1[N+](=O)[O-]", "note": "[Example 17, 5-(2-chloro-4-pyridyl)-3-(4-isobutoxy-3-nitrophenyl)-1,2,4-triazole]", "Reduction rate of serum uric acid level": 40.6}]}]}
